US8846951B2 (AbbVie Inc., priority 2009, dated 2014)
Entries after “also recorded” stand apart in the source; their conditions may differ.

Key:
[1] = test system: conditioned avoidance response (CAR) behavior; assay: Conditioned avoidance responding in rats; format: in vivo, rat; details: male Wistar rats
Description: The fact that antipsychotics have the unique ability to selectively suppress CAR behavior, made the CAR test a useful tool for the screening of new, potentially antipsychotic compounds. […] Animals Male Wistar rats (9-11 weeks old, Charles River, Germany) were pair-housed and allowed ad-libitum access to food and water. A 12-hour light/dark cycle was imposed with lights-on period between 0530 and 1730 hours. All testing occurred between 700 and 1300 hours. All procedures were approved by Abbott Institutional Animal Care and Use Committee (USA) or Animal Welfare Officer (Germany) and were conducted in accordance with the National Institutes of Health Guide for Care and Use of Laboratory Animals guidelines and applicable national laws in the facilities accredited by the Association for the Assessment and Accreditation of Laboratory Animal Care. Methods Wistar rats are exposed to a conditioned stimulus CS (a 2.9-kHz tone of 10 second duration), which is a signal for the animal that it must move into the other chamber in order to avoid an immediately ensuing footshock US (0.5 mA, 10 second, tone continues during shock presentation). Once the shock has begun, the animal can still escape it by moving to the other chamber. Each session is limited to a maximum of 40 trials (intertrial interval 10-90 seconds). The animals generally learn quickly to change chambers upon the conditioned stimulus and thus avoid further shocks. Scored are: • Avoided responses=crossings into other compartment within 10 seconds of tone presentation; • Escaped responses=crossings between 10-20 seconds of tone presentation; • Failures=crossings after cessation of tone-shock presentation or no crossing. […] At the test sessions (=CS-shock pairings), animals are pre-treated with a test drug or vehicle 30 minutes before commencement of the session.

5HT2B receptors = target: T1, 5HT2B receptors (Homo sapiens, UniProt P41595); assay: Human 5-HT2B functional high throughput screening assay in CHO-K1 cells (calcium flux); format: cell-based
T1 construct: expressed in transfected cells; host or cells: CHO-K1 cells
T1 sequence (P41595 whole entry): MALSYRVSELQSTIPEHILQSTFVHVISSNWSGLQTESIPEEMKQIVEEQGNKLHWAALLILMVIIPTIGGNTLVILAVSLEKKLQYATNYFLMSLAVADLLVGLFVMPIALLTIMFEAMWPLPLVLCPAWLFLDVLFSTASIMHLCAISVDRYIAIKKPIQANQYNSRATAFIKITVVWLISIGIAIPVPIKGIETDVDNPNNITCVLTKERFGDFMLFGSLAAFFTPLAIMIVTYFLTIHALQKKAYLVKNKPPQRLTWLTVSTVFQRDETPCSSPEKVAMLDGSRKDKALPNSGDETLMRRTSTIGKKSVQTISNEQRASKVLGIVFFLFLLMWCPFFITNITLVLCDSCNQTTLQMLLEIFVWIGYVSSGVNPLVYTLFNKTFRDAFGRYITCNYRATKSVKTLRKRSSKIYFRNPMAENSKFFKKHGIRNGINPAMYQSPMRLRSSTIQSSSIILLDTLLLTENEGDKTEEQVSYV
Method in brief: (§1)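 Calcium flux in CHO-K1 cells overexpressing each receptor, using Ca4 dye with probenecid and FLIPR detection. Top concentration was 10 μM, diluted 1:10 across 6 points, and efficacy was scaled to serotonin.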

5HT2C receptors = target: T2, 5HT2C receptors (Homo sapiens, UniProt P28335); assay: Human 5-HT2C functional high throughput screening assay in CHO-K1 cells (calcium flux); format: cell-based; design: expressed in transfected cells; host or cells: CHO-K1 cells
T2 sequence (P28335 33-458): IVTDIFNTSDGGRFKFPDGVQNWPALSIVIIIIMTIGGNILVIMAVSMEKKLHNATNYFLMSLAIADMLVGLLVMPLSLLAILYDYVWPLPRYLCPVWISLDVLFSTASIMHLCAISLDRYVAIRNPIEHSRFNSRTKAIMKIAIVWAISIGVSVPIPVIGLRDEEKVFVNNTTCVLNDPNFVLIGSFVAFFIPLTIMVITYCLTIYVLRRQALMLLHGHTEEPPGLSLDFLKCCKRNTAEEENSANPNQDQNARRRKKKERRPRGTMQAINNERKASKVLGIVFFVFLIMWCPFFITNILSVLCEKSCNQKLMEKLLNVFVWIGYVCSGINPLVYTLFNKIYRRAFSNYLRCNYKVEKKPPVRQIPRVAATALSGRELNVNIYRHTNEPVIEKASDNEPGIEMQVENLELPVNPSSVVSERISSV
Method in brief: as §1

[2] = test system: AMP- or PCP-induced hyperactivity; assay: Psychostimulant (AMP or PCP)-induced hyperlocomotion in mice; format: in vivo, mouse; details: test compound ip 30 min before d-amphetamine 2.0 mg/kg sc
Description: (x) Assessment of Effects on Psychostimulant-Induced Hyperlocomotion in Mice
In both humans and experimental animals amphetamine (AMP) profoundly affects motor activity, sensorimotor function, sleep, attention, aggressive and sexual behaviors, learning and memory, operant behaviors, appetite and food intake. In addition, amphetamine induces psychotic reactions in normal individuals and exacerbates symptoms of schizophrenia in patients. In experimental animals several distinct behaviors are considered to be correlates of amphetamine psychosis. For example, amphetamine-induced hyperactivity in rodents is believed to model the psychotic symptoms of schizophrenia. Reversal of these behaviors is used to predict potential antipsychotic activity of drugs in pre-clinical studies.
In humans, phencyclidine (PCP) is known to produce a syndrome of behavioral effects which have many characteristics in common with schizophrenia. Therefore, antagonism of PCP effects might be evidence for antipsychotic efficacy of a compound.
Male NMRI mice (5-week old, Janvier, France) or C57BL/6J mice (6-week old, Janvier, France) were group housed and allowed ad-libitum access to food and water. A 12 hour light/dark cycle was imposed with lights-on period between 0530 and 1730 hours. All testing occurred between 700 and 1300 hours. All procedures were approved by Abbott Institutional Animal Care and Use Committee (USA) or Animal Welfare Officer (Germany) and were conducted in accordance with the National Institutes of Health Guide for Care and Use of Laboratory Animals guidelines and applicable national laws in the facilities accredited by the Association for the Assessment and Accreditation of Laboratory Animal Care.
On the day of experiment, animals were brought from the animal facility into the experimental room and were allowed to acclimatize for at least 30 minutes. Animals were then placed in the test cages for a habituation period of 60 minutes. The animals were then injected ip with the test compound and returned to the test cage. 30 Minutes later the mice were injected with d-amphetamine (2.0 mg/kg, AMP, Sigma, #A5880, sc) or phencyclidine (2.0 mg/kg, PCP, Sigma, #P3029, sc) Sigma, and returned to the test cages for 90 minutes. Each treatment group consisted of 8-10 animals. The data was acquired by Cage rack Photobeam system (SDI, San Diego Instruments, CA). The analyzed data were: fine movements, ambulations and total movements (fine+ambulations). Data was subjected to one- or two-way distribution-free ANOVA followed by Dunnett's and Tukey's post hoc tests.

EC50 (5HT2B receptors; 5-HT2B agonist activity, CHO-K1 cells, calcium flux, read-out: EC50): > 10000 nM
Emax (5HT2B receptors; 5-HT2B, maximum functional response as percentage relative to the effect of serotonin): inactive
EC50 (5HT2C receptors; 5-HT2C agonist activity, CHO-K1 cells, calcium flux, read-out: EC50): 0.6 nM
Emax (5HT2C receptors; CHO-K1, 5-HT2C, maximum functional response as percentage relative to the effect of serotonin, read-out: Emax): > 120%
Compound: COc1ccc(-c2ccc3c(c2)C(=O)NC[C@H]2CN(C)C[C@H]32)cc1 [Example 158, (3aS,10bS)-8-(4-Methoxyphenyl)-2-methyl-1,2,3,3a,4,5-hexahydrobenzo[e]pyrrolo[3,4-c]azepin-6(10bH)-one]
conditioned avoidance behavior (avoided responses) ([1]; acute, 30 minutes before session): significantly suppressed conditioned avoidance behavior
number of failures ([1]; indicator of sedation or extrapyramidal side effects): without affecting the number of failures
AMP-induced hyperactivity [2]: attenuated AMP-induced hyperactivity in mice significantly and in a dose dependent manner; also recorded: attenuating the affect of d-amphetamine (AMP)
